Results taken from patent US20250110113A1, “HUMAN ORGAN-ON-A-CHIP HAVING REVERSE MICRO-WEIR STRUCTURE AND USES THEREOF” (HUMANASE, priority 2022, published 2025).

What was measured:
Format in all cases: cell-based, human
[1] = system: cervical cancer cells (HeLa); assay: Organ-on-a-chip containing cervical cancer cells, doxorubicin treatment, optical microscope; conditions: 100 μM doxorubicin in media supply chamber; 24 hours after treatment; HeLa cultured 2 days on chip; compared with control group
Description: (§1) As for one set of a media supply chamber and a media recovery chamber included in the organ-on-a-chip of the present invention fabricated in Example 1, 200 μl of media (Dulbecco Modified Eagle Medium (DMEM, Gibco) supplemented with 10% FBS) was loaded in each of the chambers. The flow of media was connected between each chamber by using a pipette, and then the media was filled inside the media channel located at both sides to finally form the flow of media. Particularly, it was confirmed that a boundary of the media was formed between the media channel and the cell chamber due to surface tension, with the inverted micro-weir structure serving as a boundary.
Then, 3×10^4 cervical cancer cells (HeLa) were injected into the cell inlet by using a pipette, and the injected cervical cancer cells (HeLa) were injected into the cell chamber by pipetting. […] Subsequently, the cells were cultured in a humidified incubator for 2 days under the conditions of 37° C. and 5% CO2.
(§2) After 100 μM doxorubicin was added to the media supply chamber of the organ-on-a-chip containing cervical cancer cells (HeLa) fabricated in Example 2-2-1, a change in cervical cancer cells in the organ-on-a-chip due to doxorubicin was observed using an optical microscope, and the degree of damage to the cervical cancer cells was compared and analyzed with a control group (FIG. 7). […]

[2] = system: breast cancer cells (MCF-7); assay: Organ-on-a-chip containing breast cancer cells, doxorubicin treatment, optical microscope; conditions: 100 μM doxorubicin in media supply chamber; 24 hours after treatment; MCF-7 cultured 2 days on chip; compared with control group
Description: as §1, with “(RPMI 1640 (Gibco)” for “(Dulbecco Modified Eagle Medium (DMEM, Gibco)”, “fetal bovine serum (FBS, Gibco))” for “FBS)”
Then, 3×10^4 breast cancer cells (Michigan Cancer Foundation-7, MCF-7) were injected into the cell inlet by using a pipette, and the injected breast cancer cells were injected into the cell chamber by pipetting. […] Subsequently, the cells were cultured in a humidified incubator for 2 days under the conditions of 37° C. and 5% CO2.
After 100 μM doxorubicin (TOCRIS) was added to the media supply chamber of the organ-on-a-chip containing breast cancer cells fabricated in Example 2-1-1, a change in breast cancer cells in the organ-on-a-chip due to doxorubicin was observed using an optical microscope, and the degree of damage to the breast cancer cells was compared and analyzed with a control group (FIG. 6). […]

[3] = system: liver cancer cells (HepG2); assay: Organ-on-a-chip containing liver cancer cells, doxorubicin treatment, optical microscope; conditions: 100 μM doxorubicin in media supply chamber; 24 hours after treatment; HepG2 cultured 2 days on chip; compared with control group
Description: As for one set of a media supply chamber and a media recovery chamber included in the organ-on-a-chip of the present invention fabricated in Example 1, 200 μl of media (Minimum Essential Media Eagle (MEM, high-glucose, Gibco) supplemented with 25 mM HEPES (4-(2-hydroxyethyl)-1-piperazineethanesulfonic acid, Gibco), 25 mM NaHCO3 (Sodium bicarbonate, Sigma-Aldrich), 10% (v/v) FBS, and P/S (100 Uml-1penicillin/100 Uml-1streptomycin, Sigma-Aldrich Co., MO)) was loaded in each of the chambers. The flow of media was connected between each chamber by using a pipette, and then the media was filled inside the media channel located at both sides to finally form the flow of media. Particularly, it was confirmed that a boundary of the media was formed between the media channel and the cell chamber due to surface tension, with the inverted micro-weir structure serving as a boundary. […]
as §2, with “liver” for “cervical”, “(HepG2)” for “(HeLa)”, “2-3-1,” for “2-2-1,”, “of liver” for “in cervical”, “8).” for “7).”

COc1cccc2c1C(=O)c1c(O)c3c(c(O)c1C2=O)C[C@@](O)(C(=O)CO)C[C@@H]3O[C@H]1C[C@H](N)[C@H](O)[C@H](C)O1 [doxorubicin]
degree of damage to the cervical cancer cells (cell death) [1]: most of the cervical cancer cells cultured in the organ-on-a-chip were dead | degree of damage to the breast cancer cells (cell death) [2]: most of the breast cancer cells cultured in the organ-on-a-chip were dead | degree of damage to the liver cancer cells (cell death) [3]: most of the liver cancer cells cultured in the organ-on-a-chip were dead
